From patent US6297274A, “Nonpeptide endothelin antagonists with increased water solubility” (priority 1998, dated 2001)
Structures can show the parent of a compound that is named as a salt. Where two headings read alike, the source gives them in different places. Blank lines part the entries; values can stand above or below the compound they belong to. Where a SMILES comes first, the peptide text is derived from it. [ ]: non-standard residue; d: D form.

Legend:
[1] = system: ET-1 induced bronchoconstriction and tracheal smooth muscle contraction; conditions: allergic sheep; cited from earlier work
[2] = system: rat hypoxia model of hypertension; conditions: cited from earlier work
[3] = system: early cerebral vasospasm following subarachnoid hemorrhage (SAH); conditions: in vivo; cited from earlier work
[4] = system: ET-1-induced gastric ulceration; conditions: in vivo; cited from earlier work
human ETA R = target: T1, human ETA R (Homo sapiens, UniProt P25101); experiment: biochemical; assay type: binding; conditions: read-out: HERBA-A IC50
T1 sequence (P25101 21-427): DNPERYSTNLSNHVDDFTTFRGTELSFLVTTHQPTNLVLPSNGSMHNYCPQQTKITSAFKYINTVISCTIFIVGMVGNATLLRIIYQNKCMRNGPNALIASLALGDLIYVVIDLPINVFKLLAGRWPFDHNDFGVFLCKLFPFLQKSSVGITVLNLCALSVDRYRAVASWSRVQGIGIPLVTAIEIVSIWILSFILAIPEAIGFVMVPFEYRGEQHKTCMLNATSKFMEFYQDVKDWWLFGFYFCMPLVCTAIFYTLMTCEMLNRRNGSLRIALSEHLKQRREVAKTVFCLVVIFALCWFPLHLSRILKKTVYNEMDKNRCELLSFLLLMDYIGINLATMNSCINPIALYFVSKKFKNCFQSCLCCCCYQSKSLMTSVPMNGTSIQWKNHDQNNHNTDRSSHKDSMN
Method: (§1) The following cultured cells were used in binding experiments: CHO-K1 cells expressing recombinant human ETB R (HERBA B), or Ltk-cells expressing human ETA R (HERBA A). […] Membranes were prepared from cultured cells by lysing cells in cold lysis buffer (5 mM HEPES, 2 mM EDTA, pH 7.4) and homogenizing with a Dounce "A" homogenizer. […] Radioligand and competing ligands were prepared in binding buffer containing 20 mM Tris, 2 mM EDTA, and 0.1% BSA.
(§2) The assay was terminated by filtration over Whatman GF/B filters that were presoaked with 50 mM Tris, pH 7.4, containing 0.2% BSA and 100 μM bacitracin. […] binding was defined as total binding minus nonspecific binding.

[5] = target: T2, ET-1 stimulated vasoconstriction, rabbit femoral artery (Oryctolagus cuniculus, UniProt A5A8K3); conditions: read-out: VERA-A pA2 (converted)
T2 sequence (A5A8K3 21-427): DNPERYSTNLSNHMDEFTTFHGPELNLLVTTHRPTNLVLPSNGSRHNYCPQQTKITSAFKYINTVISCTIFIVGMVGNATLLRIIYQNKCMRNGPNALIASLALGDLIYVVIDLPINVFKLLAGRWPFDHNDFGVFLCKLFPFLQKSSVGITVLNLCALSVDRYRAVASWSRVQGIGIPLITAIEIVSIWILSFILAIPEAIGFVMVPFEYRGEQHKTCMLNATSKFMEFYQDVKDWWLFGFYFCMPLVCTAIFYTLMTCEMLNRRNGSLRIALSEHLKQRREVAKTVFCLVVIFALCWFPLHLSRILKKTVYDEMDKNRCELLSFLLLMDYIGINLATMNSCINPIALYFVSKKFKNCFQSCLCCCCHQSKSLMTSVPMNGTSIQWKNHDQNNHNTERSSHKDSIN
Text: In vitro and in vivo studies with a series of hexapeptide endothelin antagonists. J. Cardiovasc. […] The data are presented as pA2 values.

physchem = conditions: water
recombinant human ETB R = target: T3, recombinant human ETB R (Homo sapiens, UniProt P24530); experiment: biochemical; assay type: binding; conditions: read-out: HERBA-B IC50
T3 sequence (P24530 27-442): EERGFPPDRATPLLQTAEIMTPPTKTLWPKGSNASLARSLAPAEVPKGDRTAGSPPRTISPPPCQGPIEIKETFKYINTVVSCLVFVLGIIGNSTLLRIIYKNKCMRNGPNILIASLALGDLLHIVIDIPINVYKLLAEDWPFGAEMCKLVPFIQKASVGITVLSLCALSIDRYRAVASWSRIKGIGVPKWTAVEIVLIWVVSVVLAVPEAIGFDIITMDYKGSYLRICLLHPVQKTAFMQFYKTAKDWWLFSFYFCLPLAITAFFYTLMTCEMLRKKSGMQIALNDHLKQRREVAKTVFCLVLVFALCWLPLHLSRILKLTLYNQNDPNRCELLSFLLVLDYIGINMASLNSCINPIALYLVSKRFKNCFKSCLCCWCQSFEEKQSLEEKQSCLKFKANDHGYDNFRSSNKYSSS
Method: as §1, §2

[6] = system: cerebral hemisphere of cats following middle cerebral artery occlusion; conditions: IV; cited from earlier work
[7] = system: early cerebral vasospasm following SAH in the rat; conditions: cited from earlier work
[8] = system: ischemic brain injury in rats; conditions: oral; cited from earlier work
[9] = system: vasoconstriction of the basilar artery; conditions: after 7 days, canine two-hemorrhage model; cited from earlier work
liver = conditions: cited from earlier work
small intestinal mucosa = conditions: rats, local intra-arterial; cited from earlier work
[10] = human cloned receptor ETA, [125I]-ET-1 (40 pM), 2 hours, 37 °C
[11] = human cloned receptor ETB, [125I]-ET-1 (40 pM), 2 hours, 37 °C

Compound: CC(C)C[C@@H]1NC(=O)[C@@H](C(C)C)NC(=O)[C@@H]2CCCN2C(=O)[C@@H](CC(=O)O)NC(=O)[C@@H](Cc2c[nH]c3ccccc23)NC1=O [BQ-123] (cyclo(L[dW][dD]P[dV]))
- ET-1 induced bronchoconstriction and tracheal smooth muscle contraction [1]: shown to block ET-1 induced bronchoconstriction and tracheal smooth muscle contraction in allergic sheep
- pulmonary vascular resistance and pulmonary arterial pressure [2]: provide protection in a rat hypoxia model of hypertension by lowering the increase in pulmonary vascular resistance and pulmonary arterial pressure
- early cerebral vasospasm following SAH [3]: prevent early cerebral vasospasm following subarachnoid hemorrhage (SAH)

Compound: COc1ccccc1Oc1c(NS(=O)(=O)c2ccc(C(C)(C)C)cc2)nc(-c2ncccn2)nc1OCCO [Bosentan]
- pulmonary vascular resistance and pulmonary arterial pressure [2]: provide protection in a rat hypoxia model of hypertension by lowering the increase in pulmonary vascular resistance and pulmonary arterial pressure
- ET-1-induced changes in gastric mucosal hemodynamics and gastric ulceration [4]: antagonist toward the ET-1-induced changes in gastric mucosal hemodynamics as well as on ET-1-induced gastric ulceration

- IC50 (human ETA R; [10]): 1 nM
- Kb [5]: 100 nM
Compound: COc1ccc(C2(O)OC(=O)C(c3ccc4c(c3)OCO4)=C2Cc2cc(OC)c(OC)c(OCC(=O)NCCN3CCOCC3)c2)cc1 (stereo not shown) [Example 4]

- solubility (physchem): > 25 mg/mL
Compound: COc1ccc(C2(O)OC(=O)C(c3ccc4c(c3)OCO4)=C2Cc2cc(OC)c(OC)c(OCCN(C)C)c2)cc1 (stereo not shown) [Example 11, 3-Benzo[1,3]dioxyl-5-yl-4-[3-(2-dimethylamino-ethoxy)-4,5-dimethoxy-benzyl]-5-hydroxy-5-(4-methoxy-phenyl)-5H-furan-2-one 2-hydroxyethanesulfonate]

- solubility (physchem): > 80 mg/mL
Compound: COc1ccc(C2(O)OC(=O)C(c3ccc4c(c3)OCO4)=C2Cc2cc(OC)c(OC)c(OCCCS(=O)(=O)O)c2)cc1 (stereo not shown) [Example 26]

- IC50 (human ETA R; [10]): 1.2 nM
- IC50 (recombinant human ETB R; [11]): 470 nM
- Kb ([5]; ET-1 stimulated vasoconstriction, rabbit femoral artery): 200 nM
Compound: COc1ccc(C2(O)OC(=O)C(c3ccc4c(c3)OCO4)=C2Cc2cccc(CN(C)C)c2)cc1 (stereo not shown) [Example 33, 3-Benzo[1,3]dioxol-5-yl-4-(3-dimethylaminomethyl-benzyl)-5-hydroxy-5-(4-methoxy-phenyl)-5H-furan-2-one 2-hydroxyethanesulfonate]

- solubility (physchem): > 25 mg/mL
Compound: COc1ccc(C2(O)OC(=O)C(c3ccc4c(c3)OCO4)=C2Cc2cc(OC)c(OC)c(OCCN3CCOCC3)c2)cc1 (stereo not shown) [Example 37, 3-Benzo[1,3]dioxol-5-yl-4-[3,4-dimethoxy-5-(2-morpholin-4-yl-ethoxy)-benzyl]-5-hydroxy-(4-methoxy-phenyl)-5-furan-2-one 2-hydroxyethanesulfonate]

- IC50 (human ETA R; [10]): 1 nM
- IC50 (recombinant human ETB R; [11]): 800 nM
- Kb [5]: 100 nM
Compound: COc1ccc(C2(O)OC(=O)C(c3ccc4c(c3)OCO4)=C2Cc2cc(OC)c(OC)c(OC)c2)c(OCCCN(C)C)c1 (stereo not shown) [Example 38, 3Benzo[1,3]dioxol-5-yl-5-[2-(3-dimethylamino-propoxy)-4-methoxy-phenyl]-5-hydroxy-4-(3,4,5-trimethoxy-benzyl)-5H-furan-2-one]

Compound: COc1ccc(C2(O)OC(=O)C(c3ccc4c(c3)OCO4)=C2Cc2cc(OC)c(OC)c(OC)c2)cc1 (stereo not shown) [PD 156707]
- pulmonary vascular resistance and pulmonary arterial pressure [2]: provide protection in a rat hypoxia model of hypertension by lowering the increase in pulmonary vascular resistance and pulmonary arterial pressure
- volume of ischemic damage in the cerebral hemisphere [6]: significantly reduced

Compound: COc1cccc(Oc2c(NS(=O)(=O)c3ccc(C(C)(C)C)cc3)ncnc2OCCO)c1 [Ro 46-2005]
- early cerebral vasospasm following SAH [7]: prevent early cerebral vasospasm following SAH in the rat

Compound: CCCOc1ccc2c(c1)[C@@H](c1ccc(OC)cc1OCCO)[C@H](C(=O)O)[C@H]2c1ccc2c(c1)OCO2 [SB 217242]
- reduction of ischemic brain injury [8]: Reduction of ischemic brain injury in rats was also demonstrated

- IC50 (human ETA R): 2 nM
- IC50 (recombinant human ETB R): 300 nM
Compound: COc1ccc(C(=O)C(Cc2cccc(CN(C)C)c2)=C(C(=O)O)c2cc(OC)c3c(c2)OCO3)cc1 [sodium salt]

Compound: FR 139317
- vasoconstriction of the basilar artery [9]: significantly inhibited the vasoconstriction of the basilar artery

Compound: endothelin
- hepatic vasculature vasoconstriction and hepatic glucose output (liver): eliciting both sustained vasoconstriction of the hepatic vasculature and a significant increase in hepatic glucose output
- small intestinal mucosal damage (small intestinal mucosa): shown to induce small intestinal mucosal damage in rats in a dose-dependent manner
